Test results reported in patent US20080234131A1, “Herbicidal Mixtures of Cinmethylin” (priority 2005, published 2008).

Test system: LOLMG
Assay: Pre-emergence herbicidal trial, tank-mix incorporated into the soil, damage rated 0-100% against untreated control plots
Type: in vivo, lolium multiflorum
Procedure: The mixtures according to the invention are applied pre-emergence as tank-mix which is incorporated into the soil. The herbicidal compounds of component A) and B) are applied in the formulation in which they are present as commercially available product. […] For comparison the synergistic effect is estimated as follows: The value E at which only an additive effect of the individual active ingredients is to be expected is calculated by the method of S. R. […] This is done using the formula […] where • X=Percentage of the herbicidal action of component A) at an application rate of a; • Y=Percentage of the herbicidal action of component B) at an application rate of b; • E=expected herbicidal action of component A)+B) at rates of application a+b (in %). If the value observed exceeds the value E calculated in accordance with Colby's formula, then synergism is present.

## Cc1ccccc1CO[C@@H]1C[C@@]2(C(C)C)CC[C@]1(C)O2 [Cinmethylin, exo(+)-1-methyl-4-(1-methylethyl)-2-[(2-methylphenyl)methoxy]-7-oxabicyclo[2.2.1]heptane]
Cinmethylin 200 g/ha solo
  % control of LOLMG: 58%
Cinmethylin 400 g/ha solo
  % control of LOLMG: 67%

## CCC(CC)Nc1c([N+](=O)[O-])cc(C)c(C)c1[N+](=O)[O-] [Pendimethalin]
Pendimethalin 600 g/ha solo
  % control of LOLMG: 56%

## CCCN(CCC)c1c([N+](=O)[O-])cc(C(F)(F)F)cc1[N+](=O)[O-] [Trifluralin]
Trifluralin 500 g/ha solo
  % control of LOLMG: 59%
